Key:
Assay in all cases: relative viability (nuclei count vs DMSO), 5 days (fraction); higher = more cells survive
[1] = compound: CC(C)N(CCCNC(=O)Nc1ccc(C(C)(C)C)cc1)C[C@H]1O[C@@H](n2ccc3c(N)ncnc32)[C@H](O)[C@@H]1O + O=C(c1cc(Cc2n[nH]c(=O)c3ccccc23)ccc1F)N1CCN(C(=O)C2CC2)CC1 [Olaparib] (partner 8 µM)
Summary of the method: (§1)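 Relative viability is defined as nuclei in treated wells over nuclei in vehicle wells. Duplicate plates were run and medians reported. Lung cancer cell lines in 1536-well plates were dosed by pin tool one day after seeding, with one drug or with a fixed anchor-drug dose plus five library-drug doses (not always all listed) in √10 steps, and nuclei were counted after 5 days.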

[2] = compound: CC(C)=CC[C@@H](O)C1=CC(=O)c2c(O)ccc(O)c2C1=O [Shikonin] + C[C@]1(O)C[C@@H](c2nc(-c3ccc4ccc(-c5ccccc5)nc4c3)c3c(N)nccn32)C1 [Linsitinib] (partner 1 µM)
Summary of the method: as §1

[3] = compound: CC(C)N(CCCNC(=O)Nc1ccc(C(C)(C)C)cc1)C[C@H]1O[C@@H](n2ccc3c(N)ncnc32)[C@H](O)[C@@H]1O + C[C@@H](Oc1cc(-c2cnn(C3CCNCC3)c2)cnc1N)c1c(Cl)ccc(F)c1Cl [Crizotinib] (partner 1 µM)
Summary of the method: as §1

[4] = compound: CC(C)N(CCCNC(=O)Nc1ccc(C(C)(C)C)cc1)C[C@H]1O[C@@H](n2ccc3c(N)ncnc32)[C@H](O)[C@@H]1O + Nc1nc2[nH]cc(CCc3ccc(C(=O)N[C@@H](CCC(=O)O)C(=O)O)cc3)c2c(=O)[nH]1 [Pemetrexed] (partner 0.2 µM)
Summary of the method: as §1

Row | Cell Line | relative viability ([1]; first compound 0.08 µM) | relative viability ([1]; first compound 0.253 µM) | relative viability ([1]; first compound 0.8 µM) | relative viability ([1]; first compound 2.53 µM) | relative viability ([1]; first compound 8 µM) | relative viability ([2]; first compound 0.01 µM) | relative viability ([2]; first compound 0.1 µM) | relative viability ([2]; first compound 0.3162 µM) | relative viability ([2]; first compound 1 µM) | relative viability ([3]; first compound 0.08 µM) | relative viability ([3]; first compound 0.253 µM) | relative viability ([3]; first compound 0.8 µM) | relative viability ([3]; first compound 2.53 µM) | relative viability ([3]; first compound 8 µM) | relative viability ([4]; first compound 0.08 µM) | relative viability ([4]; first compound 0.253 µM) | relative viability ([4]; first compound 0.8 µM) | relative viability ([4]; first compound 2.53 µM) | relative viability ([4]; first compound 8 µM)
1 | HARA | 0.844 | 0.737 | 0.764 | 0.538 | 0.494 | 1.1 | 0.925 | 1.01 | 0.925 | 0.991 | 0.968 | 0.927 | 1.1 | 0.988 | 0.229 | 0.293 | 0.236 | 0.233 | 0.231
2 | PC-3 [JPC-3] | 1.12 | 1.15 | – | 1.11 | 1.07 | 0.923 | 1.07 | 0.951 | 1.03 | 0.991 | 0.994 | 0.885 | 0.977 | 0.917 | 1.06 | 1.08 | – | 1.09 | 1.08
3 | NCI-H1755 | 0.892 | 0.902 | 0.861 | 0.828 | 0.793 | 1.04 | 1.04 | 1.05 | 1.07 | 0.841 | 0.9 | 0.889 | 0.832 | 0.73 | 0.391 | 0.447 | 0.387 | 0.489 | 0.348
4 | HCC-78 | 0.885 | 0.734 | 0.691 | 0.792 | 0.804 | 0.499 | 0.496 | 0.658 | 0.56 | 0.312 | 0.304 | 0.329 | 0.374 | 0.34 | 0.869 | 0.848 | 0.928 | 0.844 | 0.846
5 | IA-LM | 0.776 | 0.956 | 0.937 | 0.931 | 0.686 | 0.738 | 0.473 | 0.434 | 0.573 | 0.868 | 0.747 | 0.84 | 0.939 | 0.644 | – | – | – | – | –
6 | NCI-H441 | 0.558 | 0.632 | – | 0.544 | 0.573 | 0.618 | 0.573 | 0.578 | 0.516 | 0.815 | 0.872 | 1.09 | 0.714 | 0.673 | 0.271 | 0.242 | – | 0.263 | 0.253
7 | NCI-H322M | 0.741 | 0.797 | 0.72 | 0.765 | 0.625 | 0.919 | 0.837 | 0.993 | 1.13 | 0.912 | 1.04 | 0.802 | 0.969 | 0.962 | 0.634 | 0.609 | 0.617 | 0.593 | 0.631
8 | NCI-H520 | 0.303 | 0.389 | 0.356 | 0.331 | 0.333 | – | 1.11 | 1.07 | 1.07 | 0.789 | 0.548 | 0.858 | 0.707 | 0.733 | 0.614 | 0.743 | 0.663 | 0.787 | 0.7
9 | NCI-H1793 | 0.808 | – | 0.864 | 0.848 | 0.739 | 0.894 | 0.778 | 0.891 | 1.07 | – | – | – | – | – | 0.77 | – | 0.831 | 0.801 | 0.767
10 | NCI-H727 | 0.587 | 0.676 | 0.673 | 0.759 | 0.647 | 0.165 | 0.252 | 0.319 | 0.314 | 0.767 | 0.837 | 0.899 | 0.93 | 0.854 | – | – | – | – | –
11 | ChaGo-K-1 | 0.423 | 0.413 | 0.431 | 0.392 | 0.389 | – | – | – | – | 1.16 | 1.22 | 1.2 | 1.14 | 1.08 | 0.261 | 0.256 | 0.259 | 0.258 | 0.268
12 | NCI-H2342 | 0.4 | 0.463 | 0.419 | 0.431 | 0.444 | – | – | – | – | – | – | – | – | – | 0.807 | 0.722 | 0.729 | 0.718 | 0.801
13 | NCI-H1299 | 1.03 | 0.926 | 1 | 0.96 | 0.923 | 1 | 1.03 | 0.82 | 0.659 | 0.927 | 0.941 | 0.946 | 0.99 | 0.9 | – | – | – | – | –
14 | NCI-H1650 | 0.662 | 0.922 | 0.805 | 0.642 | 0.754 | – | – | – | – | 0.925 | 1.05 | – | 1.06 | 0.986 | 0.306 | 0.395 | 0.34 | 0.35 | 0.277
15 | SW 900 | 0.783 | 0.875 | – | 0.798 | 0.772 | – | – | – | – | – | – | – | – | – | 0.472 | 0.469 | – | 0.475 | 0.441
16 | NCI-H1648 | 0.866 | 1 | 1.03 | 0.909 | 0.826 | – | – | – | – | – | – | – | – | – | 0.741 | 0.81 | 0.472 | 0.6 | 0.942
17 | NCI-H522 | 0.754 | 0.636 | 0.583 | 0.623 | 0.732 | – | – | – | – | – | – | – | – | – | 0.991 | 0.944 | 0.904 | 1.01 | 1.04
18 | NCI-H1395 | 0.496 | 0.443 | 0.405 | 0.464 | 0.438 | 1.08 | 1.4 | 0.878 | 1.05 | – | – | – | – | – | 0.882 | 0.705 | 0.553 | 0.899 | 0.922
19 | A549 | 0.409 | 0.32 | 0.251 | 0.535 | 0.317 | 0.59 | 0.485 | 0.728 | 0.637 | 0.7 | 0.609 | 0.739 | 0.708 | 0.714 | – | – | – | – | –
20 | NCI-H2170 | 0.59 | 0.573 | 0.619 | 0.601 | 0.539 | – | – | – | – | 1.12 | 1.18 | 1.22 | 1.19 | 1.28 | 0.261 | 0.263 | 0.261 | 0.296 | 0.29
21 | NCI-H1563 | – | – | – | – | – | 1.27 | 1.29 | 1.23 | 0.892 | 0.813 | 0.963 | 0.804 | 0.812 | 0.82 | 0.774 | 0.585 | 0.795 | 0.774 | 0.782
22 | ABC-1 | 0.69 | 0.745 | – | 1.47 | 0.8 | 0.968 | 0.754 | 0.689 | 0.647 | 0.816 | 0.926 | – | 1.26 | 1.13 | – | – | – | – | –

From the supplement of paper PMC10307832
